Data as given in paper PMC12787000 (Molecules, 2025).

Key:
A375 cells = test: MTT cell viability assay, A375; format: cell-based; settings: 72 h; for Effect on cell viability at single concentration: A375, 25 μM, MTT; for IC50: Homo sapiens, A-375, A375, MTT
Method: (§1) A375, MRC-5, and HaCaT cell lines were obtained from the American Type Culture Collection (ATCC). 518A2 cell line was kindly provided by Dr. […]ć. All cell lines were cultured in RPMI 1640 medium supplemented with 2 g/L glucose, 10% fetal bovine serum (FBS), and antibiotics. […] Cell viability was assessed using the MTT assay (Sigma Aldrich, #M5655). […] After 72 h of incubation, absorbance was measured at 570 nm using a Multiskan SkyHigh microplate reader (Thermo Fisher Scientific, Helsinki, Finland). Values were corrected by subtracting the absorbance measured in wells containing cell-free medium with tested compounds.

A375R cells = test: MTT cell viability assay, vemurafenib-resistant A375R; format: cell-based; settings: for IC50: A375R, MTT, 72 h
Method: as §1

[1] = system: MRC-5 (fetal fibroblasts); test: MTT cell viability assay, MRC-5; format: cell-based; settings: Homo sapiens, MRC5; MRC-5, MTT, 72 h
Method: as §1

[2] = Stability in biological media (HPLC); format: physicochemical; settings: room temperature
Method: To test stability in biological media, three best drug candidates (compounds 1, 3, and 8) were dissolved in 0.05 M hydrochloric acid, pH 2.0, and phosphate buffer, pH 5.5 (prepared by dissolving sodium dihydrogen phosphate dihydrate and disodium hydrogen phosphate in distilled water, followed by the adjustment of pH by ortho-phosphoric acid) and RPMI 1640 medium. Stock solutions in DMSO (2 mg/mL) were diluted by corresponding medium to obtain working solutions (0.02 mg/mL) and incubated at room temperature in 0.05 M hydrochloric acid (2 h), phosphate buffer pH 5.5 (5 h), and RPMI 1640 medium (72 h). Compounds were injected freshly prepared, and after incubation time, the differences in concentrations was expressed as percentages. Quantification was performed on Dionex Ultimate 3000 HPLC system (Thermo Fisher Scientific, Dreieich, Germany), consisting of Dionex Ultimate 3000 quaternary pump, autosampler, and DAD detector. The column was Zorbax Extend C18 (150 mm × 4.6 mm, 5 µm particle size). The mobile phase was 0.1% formic acid/acetonitrile = 50/50 (compound 1) and 60/40 (compounds 3 and 8). The column temperature was adjusted to 25 °C, and the flow rate was 0.5 mL/min. The detection was performed at 300 nm.

IC50 (A375 cells) | IC50 (A375R cells) | Change in concentration after incubation in 0.05 M hydrochloric acid ([2]; 0.05 M HCl, pH 2.0, 2 h) | Change in concentration after incubation in RPMI 1640 medium ([2]; RPMI 1640 medium, 72 h) | Change in concentration after incubation in phosphate buffer pH 5.5 ([2]; phosphate buffer pH 5.5, 5 h) | Structure (SMILES) | Effect on cell viability at single concentration (A375 cells) | Selectivity (A375R cells; A375R versus normal cell lines (HaCaT, MRC-5), from IC50 values) | IC50 [1]
27.2 ± 0.58 µM | 8.84 ± 1.24 µM | 3.04% | 2.00% |  | CCCc1nc2c(C)cc(-c3nc4ccccc4n3C)cc2n1Cc1ccc(-c2ccccc2C(=O)NC(Cc2ccccc2)C(=O)O)cc1 (stereo not drawn) [compound 8, 2-{[4′-(1,7′-dimethyl-2′-propyl-1H-[2,5′]bibenzoimidazolyl-3′-ylmethyl)-biphenyl-2-carbonyl]-amino}-3-phenyl-propionic acid] | significant reductions in cell viability | > 3.50 | 31.5 ± 5.87 µM
32.1 ± 2.38 µM | 21.1 ± 6.31 µM |  |  | 3.49% | CCCc1nc2c(C)cc(-c3nc4ccccc4n3C)cc2n1Cc1ccc(-c2ccccc2C(=O)NC(Cc2ccc(O)cc2)C(=O)O)cc1 (stereo not drawn) [compound 3, 2-{[4′-(1,7′-dimethyl-2′-propyl-1H-[2,5′]bibenzoimidazolyl-3′-ylmethyl)-biphenyl-2-carbonyl]-amino}-3-(4-hydroxy-phenyl)-propionic acid] | significant reductions in cell viability |  | 50.74 ± 0.28 µM
